Laboratory results: patent publication US11524051B2, “Methods of treating fungal infections” (United States of America as represented by the Secretary of …, priority 2017, dated 2022)
Square brackets hold non-standard residues; d marks the D form. Ends that are not written are not given here. Peptide text beside a SMILES is read from it.

What was measured:
human red blood cells = assay: Hemolysis assay; format: cell-based; conditions: 1 hour at 37° C., versus untreated controls
Procedure: The hemolytic activity of BmKn2, dBmKn2, Kn2-7, dKn2-7, and melittin was assessed using human red blood cells (RBCs). The RBCs were prepared from human whole blood (BioreclamationIVT, Westbury, N.Y., USA) according to a previous report (Evans et al, J. Vis. Exp. (73), 50166, doi:10.3791/50166 (2013)). In brief, human whole blood was centrifuged, and the RBCs were washed with PBS 3-4 times and then diluted 1:20 of the original volume in PBS. Peptides at various concentrations from 0-400 μg/mL in PBS were mixed with an equal volume of the diluted RBCs in a 96-well microtiter plate and allowed to incubate for 1 hour at 37° C. The plate was then centrifuged at 500 g for 5 minutes and 100 μL of the supernatant was transferred to a 96-well, transparent, flat-bottomed plate. Sample absorbances were read at 490 nm using a BioTek Synergy HT plate reader (BioTek, Winooski, Vt.). PBS was used as a negative control (blank), and 1% Triton X-100 was used as a positive control for 100% hemolysis. The percent hemolysis for the unknown samples was calculated according to the following equation: […]

[1] = Stability of peptides in human serum (LC-MS); format: in vitro ADME; conditions: 37° C.; for remaining at 24 h, 50 μg/mL: 25% human serum (v/v), pH 7, 25% human serum in RPMI 1640, after 24 hours, read-out: peptide remaining, percent of t0; for reduction of peptide amount: 100% culture medium (RPMI 1640), 24 hours, 50 μg/mL
Procedure: The stability of Kn2-7 and dKn2-7 (50 μg/mL) were studied in 25% human serum (v/v) (BioreclamationIVT, Westbury, N.Y., USA) in 1640 RPMI media (made with 165 mM MOPS, pH 7.0) or in 100% 1640 RPMI medium at 37° C. (H. Jenssen, S. I. Aspmo, Serum stability of peptides, Peptide-Based Drug Design (2008) 177-186.) At predetermined time points, 100 μL aliquots of each solution was removed and thoroughly mixed with 200 μL of 96% ethanol. This was incubated on ice for 15 minutes followed by centrifugation at 10,000 g for 5 minutes to pellet the precipitated proteins. The supernatant (200 μL) was carefully removed, spiked with peptide 1018 (VRLIVAVRIWRR; SEQ ID NO. 3) at 1 μg/mL as the internal standard, and stored at −20° C. prior to liquid chromatography-mass spectrometry (LC/MS) analysis. Peptide 1018 is a synthetic peptide derived from bactenecin, a bovine neutrophil host defense peptide. (Mansour, S. C., et al. (2015) J. Pept. Sci., 21, 323-329. doi: 10.1002/psc.2708. The peptide sequence was synthesized by Genemed Synthesis Inc. (San Antonio, Tex.).
Liquid chromatography was performed on a Shimadzu HPLC system (Shimadzu Scientific Instruments, Inc., Columbia, Md.). A 10-μl aliquot of the sample was injected into an Agilent ZORBAX Eclipse XDB 80 Å C18 (2.1×50 mm, 5 μm) column (Agilent, Santa Clara, Calif.) held at 40° C. Mass spectrometric analysis was carried out on an AB Sciex API 4000 mass spectrometer (AB Sciex, Framingham, Mass.) with an electrospray ionization (ESI) interface and triple quadrupole mass analyzer. The peak areas of Kn2-7 and dKn2-7 on the LC-MS chromatograms were standardized to the peak area for peptide 1018.

C. albicans = test system: C. albicans; set-up: unit not given beside the values; conditions: compared with dKn2-7; cited from earlier work

Molecule | concentration at which a significant increase in hemolysis starts (human red blood cells) | remaining at 24 h, 50 μg/mL [1] | reduction of peptide amount [1] | MIC against C. albicans, times higher than dKn2-7 (C. albicans)
CC[C@@H](C)[C@@H](NC(=O)[C@H](N)Cc1ccccc1)C(=O)NCC(=O)N[C@H](C)C(=O)N[C@@H](C(=O)N[C@H](C)C(=O)N[C@H](CCCNC(=N)N)C(=O)N[C@H](CC(C)C)C(=O)N[C@H](CC(C)C)C(=O)N[C@H](CO)C(=O)N[C@H](CCCCN)C(=O)N[C@@H](C(=O)N[C@H](Cc1ccccc1)C(=O)O)[C@H](C)CC)[C@H](C)CC [dBmKn2] (H-[dF][dI]G[dA][dI][dA][dR][dL][dL][dS][dK][dI][dF]-OH; N-terminus and C-terminus assumed) | 100 µg/mL |  |  | 
FIGAIARLLSKIF [BmKn2, FIGAIARLLSKIF (SEQ ID NO. 1)] | 100 µg/mL |  |  | 
FIKRIARLLRKIF [Kn2-7, FIKRIARLLRKIF (SEQ ID NO. 2)] | 200 µg/mL | ~9% | about 20% | 
CC[C@H](C)[C@H](NC(=O)CN)C(=O)NCC(=O)N[C@@H](C)C(=O)N[C@H](C(=O)N[C@@H](CC(C)C)C(=O)N[C@@H](CCCCN)C(=O)N[C@H](C(=O)N[C@@H](CC(C)C)C(=O)N[C@H](C(=O)N[C@H](C(=O)NCC(=O)N[C@@H](CC(C)C)C(=O)N1CCC[C@H]1C(=O)N[C@@H](C)C(=O)N[C@@H](CC(C)C)C(=O)N[C@H](C(=O)N[C@@H](CO)C(=O)N[C@@H](Cc1c[nH]c2ccccc12)C(=O)N[C@H](C(=O)N[C@@H](CCCCN)C(=O)N[C@@H](CCCNC(=N)N)C(=O)N[C@@H](CCCCN)C(=O)N[C@@H](CCCNC(=N)N)C(=O)N[C@@H](CCC(N)=O)C(=O)N[C@@H](CCC(N)=O)C(N)=O)[C@@H](C)CC)[C@@H](C)CC)[C@@H](C)O)[C@@H](C)O)C(C)C)C(C)C [melittin, reference compound] | ≥ 3.125 µg/mL |  |  | 
LL-37: well-studied LL-37 peptide |  |  |  | ~3 ×
CC[C@@H](C)[C@@H](NC(=O)[C@H](N)Cc1ccccc1)C(=O)N[C@H](CCCCN)C(=O)N[C@H](CCCNC(=N)N)C(=O)N[C@@H](C(=O)N[C@H](C)C(=O)N[C@H](CCCNC(=N)N)C(=O)N[C@H](CC(C)C)C(=O)N[C@H](CC(C)C)C(=O)N[C@H](CCCNC(=N)N)C(=O)N[C@H](CCCCN)C(=O)N[C@@H](C(=O)N[C@H](Cc1ccccc1)C(=O)O)[C@H](C)CC)[C@H](C)CC [dKn2-7] (H-[dF][dI][dK][dR][dI][dA][dR][dL][dL][dR][dK][dI][dF]-OH; N-terminus and C-terminus assumed) | 200 µg/mL | ~43% | about 20% | 
